In a flash point compilation (Sun et al. 2020):
Values joined by “and” are separate entries in the source; they are usually repeats but may differ in a detail not shown here. Equal entries are not always repeated.

| SMILES | flash point |
| --- | --- |
| CC(C)(C)CCO [3,3-dimethylbutan-1-ol] | 29.00 °C |
| C=COCC [ethoxyethylene] | -46.00 °C |
| CCC(C)CC(O)CC (stereo unspecified) [5-methylheptan-3-ol] | 54.00 °C |
| CCC(C)O (stereo unspecified) [butan-2-ol] | 22.22 °C |
| COCCOCCOCCOC [1,2-bis(2-methoxyethoxy)ethane] | 113.00 °C |
| C=CC1CC=CCC1 (stereo unspecified) [4-vinylcyclohexene] | 21.00 °C |
| CCC(CC)CO [2-ethylbutan-1-ol] | 58.33 °C |
| OCc1ccco1 [2-furylmethanol] | 83.33 °C |
| CC(Cl)OC(C)Cl (stereo unspecified) [1-chloro-1-(1-chloroethoxy)ethane] | 55.00 °C |
| CCCCC(C)(O)CC (stereo unspecified) [3-methylheptan-3-ol] | 54.00 °C |
| CCCCCC(C)N (stereo unspecified) [heptan-2-amine] | 54.00 °C |
| OCCOCCO [2-(2-hydroxyethoxy)ethanol] | 138.33 °C and 143.00 °C |
| C1COCCO1 [1,4-dioxane] | 18.33 °C |
| CCCC(C)O (stereo unspecified) [pentan-2-ol] | 40.56 °C |
| CCCCCCO [hexan-1-ol] | 73.89 °C |
| CC(=O)c1ccccn1 [1-(2-pyridyl)ethanone] | 76.00 °C |
| CCC(C)(C)O [2-methylbutan-2-ol] | 20.00 °C |
| CCCCCCCCCCCCCCO [tetradecan-1-ol] | 145.00 °C |
| OCC(CO)(CO)CO [2,2-bis(hydroxymethyl)propane-1,3-diol] | 240.00 °C |
| CC(O)CCl (stereo unspecified) [1-chloropropan-2-ol] | 51.00 °C |
| COCCCl [1-chloro-2-methoxyethane] | 15.00 °C |
| CCCCCCC(C)O (stereo unspecified) [octan-2-ol] | 85.00 °C |
| CC(C)(C)c1cccc(C(C)(C)C)n1 [2,6-ditert-butylpyridine] | 72.00 °C |
| OCc1ccc(CO)cc1 [[4-(hydroxymethyl)phenyl]methanol] | 187.80 °C |
| CN(C)C=O [N,N-dimethylformamide] | 57.00 °C |
| COCC(C)O (stereo unspecified) [1-methoxypropan-2-ol] | 33.00 °C |

| SMILES | flash point |
| --- | --- |
| CCNCC [N-ethylethanamine] | -28.00 °C |
| OCCCO [propane-1,3-diol] | 79.00 °C |
| CC(CO)(CO)CO [2-(hydroxymethyl)-2-methylpropane-1,3-diol] | 160.00 °C |
| CC(O)CCO (stereo unspecified) [butane-1,3-diol] | 108.89 °C |
| Nc1ccccc1Cl [2-chloroaniline] | 98.00 °C |
| Clc1ccccn1 [2-chloropyridine] | 64.00 °C |
| CCCCCCCCCCCCCO [tridecan-1-ol] | 116.00 °C |
| CCC(CC)(CO)CO [2,2-diethylpropane-1,3-diol] | 107.00 °C |
| COc1ccccc1OC [1,2-dimethoxybenzene] | 72.00 °C |
| c1ccc(OCC2CO2)cc1 (stereo unspecified) [2-(phenoxymethyl)oxirane] | 115.00 °C |
| CCCCOCC1CO1 (stereo unspecified) [2-(butoxymethyl)oxirane] | 41.00 °C |
| OCCOCCOCCO [2-[2-(2-hydroxyethoxy)ethoxy]ethanol] | 162.78 °C |
| C=CCOc1ccccc1 [allyloxybenzene] | 62.00 °C |
| CCCCCCCCO [octan-1-ol] | 90.56 °C |
| C/C=C\C [(z)-but-2-ene] | -73.00 °C |
| Clc1ccc(Oc2ccccc2)cc1 [1-chloro-4-(phenoxy)benzene] | 113.00 °C |
| Nc1cccc(Cl)c1 [3-chloroaniline] | 118.00 °C |
| CCCCC(CC)(CO)CO [2-butyl-2-ethylpropane-1,3-diol] | 113.00 °C |
| ClCCOCCCl [1-chloro-2-(2-chloroethoxy)ethane] | 55.00 °C |
| C1=CCCCC1 [cyclohexene] | -30.00 °C |
| CC(C)C(C)C(C)CO (stereo unspecified) [2,3,4-trimethylpentan-1-ol] | 60.00 °C |
| CCCCCCCCCCO [decan-1-ol] | 104.44 °C |
| CCCCOCCOCCOCCCC [1-[2-(2-butoxyethoxy)ethoxy]butane] | 101.00 °C |
| C=CC(O)CCCCC (stereo unspecified) [oct-1-en-3-ol] | 68.00 °C |
| OCCCCCO [pentane-1,5-diol] | 129.44 °C |

Remark: another data set of the same source

| SMILES | flash point [°C] |
| --- | --- |
| C1=CCCCC1 [cyclohexene] | -17 |

Remark: another data set of the same source

| SMILES | flash point [°C] |
| --- | --- |
| Clc1ccccn1 [2-chloropyridine] | 66 |
| C1=CCCCC1 [cyclohexene] | -12 |

Remark: another data set of the same source

| SMILES | flash point [°C] |
| --- | --- |
| C[Si](C)(C)O[Si](C)(C)O[Si](C)(C)O[Si](C)(C)C [Decamethyltetrasiloxane] | 62.00 |
| CC[Si](Cl)(Cl)Cl [Ethyltrichlorosilane] | -10.00 |
| Cl[SiH](Cl)c1ccccc1 [Phenyldichlorosilane] | 60.00 |
| C[Si](Cl)(Cl)CCC#N [Cyanoethylmethyldichlorosilane] | 60.00 |
| C=C[Si](C)(C)N[Si](C)(C)C=C [1,3-Divinyltetramethyldisilazane] | 34.00 |
| CCCCCC[SiH](Cl)Cl [Hexyldichlorosilane] | 64.00 |
| CC[SiH2]CC [Diethylsilane] | -20.00 |
| C=C[Si](C=C)(C=C)C=C [Tetravinylsilane] | 18.00 |
| C[Si](C)(C)OC(=O)C(F)(F)F [Trimethylsilyltrifluoroacetate] | 0.00 |
| CC(=O)O[Si](C)(OC(C)=O)OC(C)=O [Methyltriacetoxysilane] | 85.00 |
| CCCCCCC[Si](Cl)(Cl)Cl [n-Heptyltrichlorosilane] | 64.00 |
| C[Si](Cl)(Cl)C(Cl)Cl [Dichloromethylmethyldichlorosilane] | 28.00 |
| CC[Si](CC)(CC)CC [Tetraethylsilane] | 32.00 |
| C=C(CCl)C[Si](C)(C)C [2-Chloromethyl-3-trimethylsilyl-1-propene] | 43.00 |
| CCCO[Si](OCCC)(OCCC)OCCC [Tetra-n-propoxysilane] | 95.00 |
| CCO[Si](C)(C)OCC [Dimethyldiethoxysilane] | 11.00 |
| C[SiH](C)Cl [Dimethylchlorosilane] | -28.00 |
| C[Si](C)(C)O[Si](C)(C)O[Si](C)(C)C [Octamethyltrisiloxane] | 30.00 |
| CCCCCC[Si](OC)(OC)OC [Hexyltrimethoxysilane] | 62.00 |
| Cl[Si](Cl)(Cl)C1CCCC1 [Cyclopentyltrichlorosilane] | 77.00 |
| CC(C)[SiH](C(C)C)C(C)C [Triisopropylsilane] | 37.00 |
| CCCCCC[SiH3] [Hexylsilane] | 12.00 |
| C=C[Si](OCC)(OCC)OCC [Vinyltriethoxysilane] | 34.00 |
| CN([Si](C)(C)C)[Si](C)(C)C [Heptamethyldisilazane] | 27.00 |

| SMILES | flash point [°C] |
| --- | --- |
| CCO[Si](C)(C)C [Ethoxytrimethylsilane] | -27.00 |
| C[Si](C)(C)CBr [Bromomethyltrimethylsilane] | 16.00 |
| C[SiH](C)c1c(F)c(F)c(F)c(F)c1F [Dimethyl(pentafluorophenyl) silane] | 40.00 |
| C[Si](C)(C)O[Si](C)(C)O[Si](C)(C)O[Si](C)(C)O[Si](C)(C)O[Si](C)(C)O[Si](C)(C)C [Hexadecamethylheptasiloxane] | 133.00 |
| CC(C)(C)[Si](Cl)(Cl)Cl [t-Butyltrichlorosilane] | 21.00 |
| Cl[SiH](Cl)C1CCCC1 [Cyclopentyldichlorosilane] | 43.00 |
| CCCCCCC[Si](C)(Cl)Cl [n-Heptylmethyldichlorosilane] | 66.00 |
| CCCC[Si](Cl)(Cl)Cl [n-Butyltrichlorosilane] | 54.00 |
| C[Si](Cl)(Cl)CCCCl [3-Chloropropylmethyldichlorosilane] | 86.00 |
| C[Si]1(C)O[Si](C)(C)O[Si](C)(C)O[Si](C)(C)O1 [Octamethylcyclotetrasiloxane] | 57.00 |
| CC[Si](Cl)(CC)CC [Triethylchlorosilane] | 30.00 |
| C[Si](C)(C)O[Si](C)(C)O[Si](C)(C)O[Si](C)(C)O[Si](C)(C)O[Si](C)(C)C [Tetradecamethylhexasiloxane] | 102.00 |
| C[Si](C)(C)Br [Trimethylbromosilane] | -3.00 |
| CCO[Si](OCC)(OCC)c1ccccc1 [Phenyltriethoxysilane] | 120.00 |
| Clc1ccc([Si](Cl)(Cl)Cl)cc1 [Trichloro(p-chlorophenyl)silane] | 123.90 |
| C[Si](Cl)(c1ccccc1)c1ccccc1 [Methyldiphenylchlorosilane] | 138.00 |
| CC[Si](C)(Cl)CC [Diethylmethylchlorosilane] | 15.00 |
| C[Si](C)(C)I [Iodotrimethylsilane] | 15.00 |
| C[Si](C)(C)O[SiH](O[Si](C)(C)C)O[Si](C)(C)C [Tris(trimethylsiloxy)silane] | 50.00 |
| CCO[Si](C)(C)CCl [Chloromethyldimethylethoxysilane] | 26.00 |
| C[Si](C)(C)O[SiH2]O[Si](C)(C)C [Hexamethyltrisiloxane] | 20.00 |
| C[Si]1(C)CCCCO1 [1,1-Dimethyl-1-sila-2-oxacyclohexane] | 14.00 |
| C[Si](C)(C)c1ccccc1 [Trimethylphenylsilane] | 40.00 |

Remark: another data set of the same source

| SMILES | flash point [°C] |
| --- | --- |
| CCC(C)O (stereo unspecified) [butan-2-ol] | 24.00 |
| CCC(CC)CO [2-ethylbutan-1-ol] | 53.00 |
| C1COCCO1 [1,4-dioxane] | 12.00 |
| CCCC(C)O (stereo unspecified) [pentan-2-ol] | 35.00 |
| CCCCCCO [hexan-1-ol] | 63.00 |
| CCC(C)(C)O [2-methylbutan-2-ol] | 19.00 |
| CCCCCCCCCCCCCCO [tetradecan-1-ol] | 141.00 |
| CCCCCCC(C)O (stereo unspecified) [octan-2-ol] | 76.00 |
| CN(C)C=O [N,N-dimethylformamide] | 67.00 |
| CCNCC [N-ethylethanamine] | -29.00 |
| CCCCCCCCCCCCCO [tridecan-1-ol] | 121.00 |
| CCCCOCC1CO1 (stereo unspecified) [2-(butoxymethyl)oxirane] | 54.00 |
| CCCCCCCCO [octan-1-ol] | 81.00 |
| CCCCCCCCCCO [decan-1-ol] | 82.00 |
| CCCCOCCOCCOCCCC [1-[2-(2-butoxyethoxy)ethoxy]butane] | 118.00 |
